From the supplement of paper PMC10627819 come the findings set out here.

Common to all, as to experiment: Bliss interaction score (quartile over a dose matrix) (fitness difference); higher = more antagonism (negative = synergy)
One test concerns S. aureus Newman. The essentials: (§1)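 Growth in each well was taken as OD595 at entry into stationary phase. Dividing by the plate's robust no-drug mean and capping at 1 gave fitness, and single-drug fitness was inferred from the combination data. The Bliss score, observed minus product-expected fitness, is summarised by quartiles over technical, biological and donor/recipient replicates.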

Another test concerns B. subtilis 168. In a few lines:
as §1

The test system of the next test is S. aureus DSM 20231. In a few lines:
as §1

The test system of the next test is S. pneumoniae D39V. In a few lines:
as §1
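Note: first quartile when negative (synergy) and third quartile when positive (antagonism).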

For the compound `CO/N=C(\C(=O)N[C@@H]1C(=O)N2C(C(=O)[O-])=C(C[N+]3(C)CCCC3)CS[C@H]12)c1csc(N)n1` [Cefepime] + O=C(O[C@@H]1Cc2c(O)cc(O)cc2O[C@@H]1c1cc(O)c(O)c(O)c1)c1cc(O)c(O)c(O)c1 [EGCG], the Bliss interaction score is -0.0498 in the test on S. aureus Newman, 0.0402 with B. subtilis 168, -0.159 with S. aureus DSM 20231 and 0.0602 in the test on S. pneumoniae D39V.
Regarding `CO/N=C(\C(=O)N[C@@H]1C(=O)N2C(C(=O)[O-])=C(C[N+]3(C)CCCC3)CS[C@H]12)c1csc(N)n1` [Cefepime] + Oc1cc(Cl)ccc1Oc1ccc(Cl)cc1Cl [Triclosan], the Bliss interaction score was -0.0285 in the test with S. aureus Newman, 0.0502 in the test with B. subtilis 168, 0.0725 in the test with S. aureus DSM 20231 and -0.0485 with S. pneumoniae D39V.
The matching figures for `CCCCCCCCCC(=O)N[C@@H](Cc1c[nH]c2ccccc12)C(=O)N[C@H](CC(N)=O)C(=O)N[C@@H](CC(=O)O)C(=O)N[C@@H]1C(=O)NCC(=O)N[C@@H](CCCN)C(=O)N[C@@H](CC(=O)O)C(=O)N[C@H](C)C(=O)N[C@@H](CC(=O)O)C(=O)NCC(=O)N[C@H](CO)C(=O)N[C@@H]([C@H](C)CC(=O)O)C(=O)N[C@@H](CC(=O)c2ccccc2N)C(=O)O[C@@H]1C` [Daptomycin] + CC1(C)S[C@@H]2[C@H](NC(=O)Cc3ccccc3)C(=O)N2[C@H]1C(=O)O [PenicillinG]: 0.0645, 0.101, 0.0411 and 0.107.
With `CCCCCCCCCC(=O)N[C@@H](Cc1c[nH]c2ccccc12)C(=O)N[C@H](CC(N)=O)C(=O)N[C@@H](CC(=O)O)C(=O)N[C@@H]1C(=O)NCC(=O)N[C@@H](CCCN)C(=O)N[C@@H](CC(=O)O)C(=O)N[C@H](C)C(=O)N[C@@H](CC(=O)O)C(=O)NCC(=O)N[C@H](CO)C(=O)N[C@@H]([C@H](C)CC(=O)O)C(=O)N[C@@H](CC(=O)c2ccccc2N)C(=O)O[C@@H]1C` [Daptomycin] + CC(=O)O[C@H]1C[C@@]2(C)[C@@H](C[C@@H](O)[C@H]3[C@@]4(C)CC[C@@H](O)[C@@H](C)[C@@H]4CC[C@@]32C)/C1=C(\CCC=C(C)C)C(=O)O [Fusidic acid], the Bliss interaction score in the test with S. aureus Newman is -0.0422; in the test on B. subtilis 168, 0.0625; in the test with S. aureus DSM 20231, 0.0265; in the test with S. pneumoniae D39V it was -0.109.
Turning to `CCCCCCCCCC(=O)N[C@@H](Cc1c[nH]c2ccccc12)C(=O)N[C@H](CC(N)=O)C(=O)N[C@@H](CC(=O)O)C(=O)N[C@@H]1C(=O)NCC(=O)N[C@@H](CCCN)C(=O)N[C@@H](CC(=O)O)C(=O)N[C@H](C)C(=O)N[C@@H](CC(=O)O)C(=O)NCC(=O)N[C@H](CO)C(=O)N[C@@H]([C@H](C)CC(=O)O)C(=O)N[C@@H](CC(=O)c2ccccc2N)C(=O)O[C@@H]1C` [Daptomycin] + CC[C@H]1OC(=O)[C@H](C)C(=O)[C@H](C)[C@@H](O[C@@H]2O[C@H](C)C[C@H](N(C)C)[C@H]2O)[C@](C)(OC)C[C@@H](C)C(=O)[C@H](C)[C@H]2N(CCCCn3cnc(-c4cccnc4)c3)C(=O)O[C@]12C [Telithromycin], the Bliss interaction score with S. aureus Newman is 0.0361; in the test with B. subtilis 168, 0.0516; in the test with S. aureus DSM 20231, 0.0926; with S. pneumoniae D39V, -0.0436.
For `CCCCCCCCCC(=O)N[C@@H](Cc1c[nH]c2ccccc12)C(=O)N[C@H](CC(N)=O)C(=O)N[C@@H](CC(=O)O)C(=O)N[C@@H]1C(=O)NCC(=O)N[C@@H](CCCN)C(=O)N[C@@H](CC(=O)O)C(=O)N[C@H](C)C(=O)N[C@@H](CC(=O)O)C(=O)NCC(=O)N[C@H](CO)C(=O)N[C@@H]([C@H](C)CC(=O)O)C(=O)N[C@@H](CC(=O)c2ccccc2N)C(=O)O[C@@H]1C` [Daptomycin] + CC[C@H]1OC(=O)[C@H](C)[C@@H](O[C@H]2C[C@@](C)(OC)[C@@H](O)[C@H](C)O2)[C@H](C)[C@@H](O[C@@H]2O[C@H](C)C[C@H](N(C)C)[C@H]2O)[C@](C)(O)C[C@@H](C)C(=O)[C@H](C)[C@@H](O)[C@]1(C)O [Erythromycin] the same measures were -0.034, 0.102, 0.0418 and -0.0815.
On to `CCCCCCCCCC(=O)N[C@@H](Cc1c[nH]c2ccccc12)C(=O)N[C@H](CC(N)=O)C(=O)N[C@@H](CC(=O)O)C(=O)N[C@@H]1C(=O)NCC(=O)N[C@@H](CCCN)C(=O)N[C@@H](CC(=O)O)C(=O)N[C@H](C)C(=O)N[C@@H](CC(=O)O)C(=O)NCC(=O)N[C@H](CO)C(=O)N[C@@H]([C@H](C)CC(=O)O)C(=O)N[C@@H](CC(=O)c2ccccc2N)C(=O)O[C@@H]1C` [Daptomycin] + CN[C@H](CC(C)C)C(=O)N[C@H]1C(=O)N[C@@H](CC(N)=O)C(=O)N[C@H]2C(=O)N[C@H]3C(=O)N[C@H](C(=O)N[C@H](C(=O)O)c4cc(O)cc(O)c4-c4cc3ccc4O)[C@H](O[C@H]3C[C@](C)(N)[C@@H](O)[C@H](C)O3)c3ccc(c(Cl)c3)Oc3cc2cc(c3O[C@@H]2O[C@H](CO)[C@@H](O)[C@H](O)[C@H]2O[C@H]2C[C@](C)(NCc3ccc(-c4ccc(Cl)cc4)cc3)[C@@H](O)[C@H](C)O2)Oc2ccc(cc2Cl)[C@H]1O [Oritavancin], for which the Bliss interaction score in the test with S. aureus Newman was 0.0913; in the test on B. subtilis 168, -0.0305; with S. aureus DSM 20231, 0.0891; in the test on S. pneumoniae D39V it was 0.0853.
Consider `CCCCCCCCCC(=O)N[C@@H](Cc1c[nH]c2ccccc12)C(=O)N[C@H](CC(N)=O)C(=O)N[C@@H](CC(=O)O)C(=O)N[C@@H]1C(=O)NCC(=O)N[C@@H](CCCN)C(=O)N[C@@H](CC(=O)O)C(=O)N[C@H](C)C(=O)N[C@@H](CC(=O)O)C(=O)NCC(=O)N[C@H](CO)C(=O)N[C@@H]([C@H](C)CC(=O)O)C(=O)N[C@@H](CC(=O)c2ccccc2N)C(=O)O[C@@H]1C` [Daptomycin] + CO[C@@]12[C@H](COC(N)=O)C3=C(C(=O)C(C)=C(N)C3=O)N1C[C@@H]1N[C@@H]12 [MitomycinC], for which the Bliss interaction score is -0.0398 with S. aureus Newman, 0.0997 in the test on B. subtilis 168, 0.0739 in the test with S. aureus DSM 20231 and -0.0769 in the test on S. pneumoniae D39V.
As for `CCCCCCCCCC(=O)N[C@@H](Cc1c[nH]c2ccccc12)C(=O)N[C@H](CC(N)=O)C(=O)N[C@@H](CC(=O)O)C(=O)N[C@@H]1C(=O)NCC(=O)N[C@@H](CCCN)C(=O)N[C@@H](CC(=O)O)C(=O)N[C@H](C)C(=O)N[C@@H](CC(=O)O)C(=O)NCC(=O)N[C@H](CO)C(=O)N[C@@H]([C@H](C)CC(=O)O)C(=O)N[C@@H](CC(=O)c2ccccc2N)C(=O)O[C@@H]1C` [Daptomycin] + Oc1cc(Cl)ccc1Oc1ccc(Cl)cc1Cl [Triclosan], the Bliss interaction score in the test on S. aureus Newman is -0.0264; in the test on B. subtilis 168, -0.0488; in the test on S. aureus DSM 20231 it was 0.0576; with S. pneumoniae D39V, 0.0768.
As for `C[C@H]1COc2c(N3CCN(C)CC3)c(F)cc3c(=O)c(C(=O)O)cn1c23` [Levofloxacin] + CC1(C)S[C@@H]2[C@H](NC(=O)Cc3ccccc3)C(=O)N2[C@H]1C(=O)O [PenicillinG], the Bliss interaction score is -0.0602 in the test on S. aureus Newman, 0.0528 in the test with B. subtilis 168, 0.0432 in the test on S. aureus DSM 20231 and -0.103 with S. pneumoniae D39V.
Turning to `C[C@H]1COc2c(N3CCN(C)CC3)c(F)cc3c(=O)c(C(=O)O)cn1c23` [Levofloxacin] + CCCCCCCCCC(=O)N[C@@H]1[C@H]([C@@H]([C@H](O[C@H]1OC2=C3C=C4C=C2OC5=C(C=C(C=C5)[C@H]([C@H]6C(=O)N[C@@H](C7=C(C(=CC(=C7)O)OC8[C@H]([C@H]([C@@H]([C@H](O8)CO)O)O)O)C9=C(C=CC(=C9)[C@H](C(=O)N6)NC(=O)[C@@H]4NC(=O)[C@@H]1C2=CC(=CC(=C2)OC2=C(C=CC(=C2)[C@H](C(=O)N[C@H](CC2=CC(=C(O3)C=C2)Cl)C(=O)N1)N)O)O)O)C(=O)O)O[C@H]1[C@@H]([C@H]([C@@H]([C@H](O1)CO)O)O)NC(=O)C)Cl)CO)O)O [Teicoplanin], the Bliss interaction score is -0.0552 with S. aureus Newman (main component drawn), 0.0334 with B. subtilis 168 (main component drawn), -0.0673 in the test with S. aureus DSM 20231 (main component drawn) and -0.0681 in the test with S. pneumoniae D39V (main component drawn).
